These results are taken from patent publication US11332459B2 (TEIJIN PHARMA LIMITED, priority 2017, dated 2022).

Where a name gives a salt, the structure may show the parent alone.

The target in this assay is T1, human TRPC6 (Homo sapiens, UniProt Q9Y210).
T1 construct: expressed in transfected cells
T1 sequence (Q9Y210 1-931): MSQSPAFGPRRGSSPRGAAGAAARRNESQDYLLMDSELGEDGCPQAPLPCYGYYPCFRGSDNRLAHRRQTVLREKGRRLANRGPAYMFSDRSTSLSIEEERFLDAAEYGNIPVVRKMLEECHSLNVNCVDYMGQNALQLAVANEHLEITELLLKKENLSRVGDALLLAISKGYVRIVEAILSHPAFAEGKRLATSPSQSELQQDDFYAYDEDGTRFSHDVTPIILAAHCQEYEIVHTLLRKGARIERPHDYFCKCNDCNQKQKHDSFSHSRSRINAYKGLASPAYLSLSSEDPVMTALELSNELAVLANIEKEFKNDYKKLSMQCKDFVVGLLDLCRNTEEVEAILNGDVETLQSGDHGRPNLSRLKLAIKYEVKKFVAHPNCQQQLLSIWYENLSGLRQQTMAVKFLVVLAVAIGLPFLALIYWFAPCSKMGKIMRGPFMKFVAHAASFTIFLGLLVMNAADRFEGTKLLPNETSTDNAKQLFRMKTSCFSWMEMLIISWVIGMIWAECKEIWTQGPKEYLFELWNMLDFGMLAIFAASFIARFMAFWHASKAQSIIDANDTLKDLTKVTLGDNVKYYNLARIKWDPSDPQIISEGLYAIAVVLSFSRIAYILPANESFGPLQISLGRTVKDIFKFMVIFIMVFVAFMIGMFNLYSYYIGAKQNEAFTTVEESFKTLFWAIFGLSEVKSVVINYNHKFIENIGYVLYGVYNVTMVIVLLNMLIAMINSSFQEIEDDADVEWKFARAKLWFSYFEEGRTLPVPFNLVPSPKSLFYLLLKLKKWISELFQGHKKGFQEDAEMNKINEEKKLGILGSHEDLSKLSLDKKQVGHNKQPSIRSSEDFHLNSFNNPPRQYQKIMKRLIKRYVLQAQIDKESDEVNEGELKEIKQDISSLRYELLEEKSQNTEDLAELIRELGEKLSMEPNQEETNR
Briefly: TRPC6 calcium flux assay (FLIPR, OAG-stimulated calcium influx). Particulars: HEK293 cells stably transfected with human TRPC6, read-out: hTRPC6 Potency. The class given is cell-based. The method, then: Biological Example 1 TRPC6 Calcium Flux Assay
Potency of TRPC6 (Transient receptor potential channel family C6) inhibitors were measured by their inhibition of Calcium influx trigged by […] (1-Oleoyl-2-acetyl-sn-glycerol, Millipore Sigma, O6754) stimulation on HEK293 cells stablely transfected with human TRPC6 using a FLIPR tetra system. Cells were grown in a humidified environment at 37° C. under 5% CO2 using the growth medium with the following selective reagents (Dulbecco's Modified Eagle's Medium (DMEM) high glucose, 10% Fetal Bovine Serum, 1×PSGlu (penicillin-streptomycin glutamine), 1×NEAA (Non-essential amino acid), 1× Na Pyruvate and 200 ug/ml Hygromycin). For general passage, cells were grown to 70-90% confluency; the media was removed, and the cells were gently washed 2 times with calcium and magnesium free PBS (phosphate-buffered saline). Trypsin (3 mL) was applied for 5 minutes at 37° C. The cells were dislodged by rapping flask against base of a hand and 7 mL of growth medium was added to deactivate trypsin and re-suspend cells. The usual splitting schedule was 1:5 every 2-3 days.
Cells were plated the day before the assay, plating cell density is 1.0-1.5×10^4/25 μl/well in poly-D-lysine (PDL) coated 384-well plates using either multichannel pipettes or multidrop. These cells were first incubated with fluorescence dye at room temperature for 90-120 minutes after they were grown on PDL-coated 384-well black plates overnight (Dye loading buffer 10 ml example: 9 mL assay buffer, 1 mL, 10×PBX signal enhancer, 10 μL Calcium indicator). The cells were incubated with a dose of compounds for 25 minutes before being stimulated with TRPC6 agonist OAG. The OAG solution was prepared by adding OAG into assay buffer (Ca ringer solution base: 10 mM HEPES (4-(2-hydroxyethyl)-1-piperazine-ethanesulfonic acid), 4 mM MgCl2, 120 mM NaCl, 5 mM KCl, pH=7.2 @25° C.)+0.1% BSA+2 mM CaCl2) to the concentration of 0.2 mM/2% DMSO, which achieves a final on cell concentration of 50 uM/0.5% DMSO. 12.5 uL OAG mixture was added and the activation of the TRPC6 channel was measured by the change of intracellular Calcium levels on FLIPR terra system.
Data was acquired by measuring the fluorescent peak signal subtracted from the background during the 180 second imaging frame. Each data point is further normalized to 100% of OAG triggered signal vs. buffer. Table 16 provides the IC50 for each compound, which data is obtained by plotting peak signal over the compound dose.
For orientation: A change in cytosolic calcium serves as a functional read-out for many receptors and channels.
For the compound `N#Cc1ccc2c(c1)nc(N1CCC(F)(F)[C@H](N)C1)n2Cc1ncc(Cl)cn1` [Example 42, (R)-2-(3-amino-4,4-difluoropiperidin-1-yl)-1-((5-chloropyrimidin-2-yl)methyl)-1H-benzo[d]imidazole-5-carbonitrile], the IC50 worked out at 1940 nM.
Take `N[C@@H]1CN(c2nc3cc(F)c(F)cc3n2CC(=O)N2CCc3sccc3C2)CC[C@H]1F` [Example 505, 2-(2-((3R,4R)-3-amino-4-fluoropiperidin-1-yl)-5,6-difluoro-1H-benzo[d]imidazol-1-yl)-1-(6,7-dihydrothieno[3,2-c]pyridin-5(4H)-yl)ethan-1-one]: the IC50 was 43.2 nM.
For the compound `N#Cc1ccc(Cn2c(N3C[C@@H]4C[C@]4(CN)C3)nc3ccccc32)cc1` [Example 183, 4-((2-((1S,5R)-1-(aminomethyl)-3-azabicyclo[3.1.0]hexan-3-yl)-1H-benzo[d]imidazol-1-yl)methyl)benzonitrile], the IC50 was 655 nM.
For the compound `N[C@@H]1CN(c2nc3cc(F)c(F)cc3n2Cc2ccc(OC(F)(F)F)cc2)CC[C@H]1F` [Example 362, (3R,4R)-1-(5,6-difluoro-1-(4-(trifluoromethoxy)benzyl)-1H-benzimidazol-2-yl)-4-fluoro-3-piperidinamine], the IC50 came out at 256 nM.
`CN[C@@H]1CN(c2nc3cc(F)ccc3n2CC(=O)N(C)CC(F)(F)F)CC[C@H]1F` [Example 479, 2-(5-fluoro-2-((3R,4R)-4-fluoro-3-(methylamino)piperidin-1-yl)-1H-benzo[d]imidazol-1-yl)-N-methyl-N-(2,2,2-trifluoroethyl)acetamide]: the IC50 was determined as 1200 nM.
On to `NC(=O)C1CCN(C(=O)Cn2c(N3CC[C@@H](F)[C@H](N)C3)nc3cc(F)c(F)cc32)CC1` [Example 532, 1-(2-(2-((3R,4R)-3-amino-4-fluoropiperidin-1-yl)-5,6-difluoro-1H-benzo[d]imidazol-1-yl)acetyl)piperidine-4-carbaxamide], for which the IC50 was > 3750 nM.
With `N#Cc1ccc(Cn2c(N3CC[C@@H](CN)C3)nc3ccccc32)nc1` [Example 81, (S)-6-((2-(3-(aminomethyl)pyrrolidin-1-yl)-1H-benzo[d]imidazol-1-yl)methyl)nicotinonitrile hydrochloride], the IC50 came to 557 nM.
With `N[C@@H]1CN(c2nc3ccccc3n2Cc2ccc(Cl)cn2)CC[C@@H]1F` [Example 86, (3R,4S)-1-(1-((5-chloropyridin-2-yl)methyl)-1H-benzo[d]imidazol-2-yl)-4-fluoropiperidin-3-amine hydrochloride], the IC50 turned out to be 1.37 nM.
With `N[C@@H]1CN(c2nc3cc(F)c(F)cc3n2CC(=O)N2CCN3C(=O)NCC3C2)CC[C@H]1F` (stereo partly drawn) [Example 642, 7-(2-(2-((3R,4R)-3-amino-4-fluoropiperidin-1-yl)-5,6-difluoro-1H-benzo[d]imidazol-1-yl)acetyl)hexahydroimidazo [1,5-a]pyrazin-3(2H)-one], the IC50 was determined as 1650 nM.
In the case of `N#Cc1ccc(Cn2c(N3CC[C@@H](F)[C@H](N)C3)nc3cc(Cl)ccc32)nc1` [Example 7, 6-((2-((3R,4R)-3-amino-4-fluoropiperidin-1-yl)-5-chloro-1H-benzo[d]imidazol-1-yl)methyl)nicotinonitrile], the IC50 worked out at 1.17 nM.
In the case of `N#Cc1ccc2nc(N3CC[C@@H](F)[C@H](N)C3)n(Cc3ccc(F)cn3)c2c1` [Example 190, 2-((3R,4R)-3-amino-4-fluoropiperidin-1-yl)-1-((5-fluoropyridin-2-yl)methyl)-1H-benzo[d]imidazole-6-carbonitrile], the IC50 was found to be 4.02 nM.
For `N[C@@H]1CN(c2nc3cc(F)cc(F)c3n2Cc2ccc(F)cn2)CC[C@H]1F` [Example 32, (3R,4R)-1-(5,7-difluoro-1-((5-fluoropyridin-2-yl)methyl)-1H-benzo[d]imidazol-2-yl)-4-fluoropiperidin-3-amine], the IC50 was found to be 47.2 nM.
For `CO[C@@H]1CCN(c2nc3ccc(F)cc3n2Cc2ncc(Cl)cn2)C[C@H]1N` (single isomer, unassigned) [Example 456], the IC50 turned out to be 8.44 nM.
Regarding `N#Cc1ccc(Cn2c(N3CC[C@@H](F)[C@H](N)C3)nc3cc(C#N)ccc32)nc1` [Example 54, 2-((3R,4R)-3-amino-4-fluoropiperidin-1-yl)-1-((5-cyanopyridin-2-yl)methyl)-1H-benzo[d]imidazole-5-carbonitrile], the IC50 stood at 5.52 nM.
On to `N[C@@H]1CN(c2nc3cc(F)c(F)cc3n2Cc2ccc(Cl)c(Cl)c2)CC[C@H]1F` [Example 359, (3R,4R)-1-(1-(3,4-dichlorobenzyl)-5,6-difluoro-1H-benzimidazol-2-yl)-4-fluoro-3-piperidinamine], for which the IC50 was determined as 238 nM.
As for `N#Cc1ccc(Cn2c(N3CCC[C@H](N)C3)nc3ccccc32)cn1` [Example 210, (S)-5-((2-(3-aminopiperidin-1-yl)-1H-benzo[d]imidazol-1-yl)methyl)picolinonitrile], the IC50 is 69.1 nM.
`CC(CC#N)N(C)C(=O)Cn1c(N2CC[C@@H](F)[C@H](N)C2)nc2cc(F)c(F)cc21` (mixture of isomers) [Example 612, 2-(2-((3R,4R)-3-amino-4-fluoropiperidin-1-yl)-5,6-difluoro-1H-benzo[d]imidazol-1-yl)-N-(1-cyanopropan-2-yl)-N-methylacetamide]: the IC50 is 22.4 nM.
As for `N#Cc1ccc(Cn2c(N3CC[C@@H](F)[C@H](N)C3)nc3ncc(C(F)(F)F)cc32)nc1` [Example 499, 6-((2-((3R,4R)-3-amino-4-fluoropiperidin-1-yl)-6-(trifluoromethyl)-1H-imidazo[4,5-b]pyridin-1-yl)methyl)nicotinonitrile], the IC50 was determined as 2.58 nM.
Take `CC(F)(F)c1ccc(Cn2c(N3CC[C@@H](F)[C@H](N)C3)nc3cc(F)c(F)cc32)cc1` [Example 344, (3R,4R)-1-(1-(4-(1,1-difluoroethyl)benzyl)-5,6-difluoro-1H-benzimidazol-2-yl)-4-fluoro-3-piperidinamine]: the IC50 amounted to 85.3 nM.
Under `C[C@H](c1ccccn1)N(C)C(=O)Cn1c(N2CC[C@@H](F)[C@H](N)C2)nc2cc(F)c(F)cc21` [Example 604] stands 7.78 nM; under `N[C@@H]1CN(c2nc3cc(F)c(F)cc3n2CC(=O)O)CC[C@H]1F` [Example 437, 2-(2-((3R,4R)-3-amino-4-fluoropiperidin-1-yl)-5,6-difluoro-1H-benzo[d]imidazol-1-yl)acetic acid], > 3750 nM; under `CN1CCC(n2c(N3CC[C@@H](F)[C@H](N)C3)nc3cc(F)c(F)cc32)C1=O` (mixture of isomers) [Example 238, 3-(2-((3R,4R)-3-amino-4-fluoropiperidin-1-yl)-5,6-difluoro-1H-benzo[d]imidazol-1-yl)-1-methylpyrrolidin-2-one], 185 nM.
Take `N#Cc1ccc(Cn2c(N3CCC[C@H](N)C3)nc3c(Cl)cccc32)cc1` [Example 418, (S)-4-((2-(3-aminopiperidin-1-yl)-4-chloro-1H-benzo[d]imidazol-1-yl)methyl)benzonitrile 2,2,2-trifluoroacetate]: the IC50 worked out at 0.584 nM.
